Measured values taken from patent US6710168B1, “Glycopeptide antibiotics, combinatorial libraries of glycopeptide antibiotics and methods of producing same” (The Trustees of the University of Princeton, priority 1999, dated 2004).
Converted amounts (≈) assume the structure as drawn.

What was measured:
Type in all cases: cell-based
[1] = tested on: Bacillus cereus (ATCC 11778); test: MIC susceptibility test, microdilution with MTT readout; settings: for MIC BC: Bacillus ceres ATCC11778; for MIC: Bacillus cereus, ATCC11778, read-out: MIC BC
Method: (§1) Evaluation of vancomycin analogs is performed using in vitro susceptibility tests and a time-kill assay. [NCCL Standard, 1993] In susceptibility tests, five strains of bacteria, two of the most important: Staphylococcus aureus and Enterococcus faecalis (both susceptible and resistant strains), and Bacillus cereus are chosen and bacteria viability remaining in each well is evaluated using a colorimetric assay based on the tetrazolium salt 3-(4,5-dimethyl-2-thiazolyl)-2,5-diphenyl-2H tetrazolium bromide (MTT) and minimum inhibitory concentration (MIC) values are determined as μg/mL. [Mosmann, T. (1983); Damour, O., et al. (1992); Mikami, Y., et al. (1994)] This assay gives susceptibility information quickly, efficiently, and clearly.
(§2) All strains [Bacillus cereus (ATCC® 11778), Staphylococcus aureus (ATCC® 29213), Methicillin resistant Staphylococcus aureus (ATCC® 33591), Enterococcus faecalis (ATCC® 29212), and gentamicin, streptmycin, vancomycin resistant Enterococcus faecalis (ATCC® 51299), are purchased from REMEL (Lenexa, Kans.).
(§3) MICs are determined by the microdilution method using 96-well microplates. Samples are suspended with Cation Adjusted (20 to 25 mg of Ca^2+/mL and 10 to […] of Mg^2+) Mueller-Hinton broth (Difco Laboratories, Detroit, Mich.) and are two-fold diluted from 5 μg/mL to […] on microplates (12 step dilution). To each well, which contained 100 μL of cell suspension (10^6 CFU/mL), 100 μL of antibiotic solution is added and the plates are incubated at 37° C. for 24 h. 50 μL of MTT solution (1 mg/mL) is added to each well, then the plates are incubated under the same conditions (incubation time; 30 min for Bacillus cereus, Staphylococcus aureus, and Methicillin resistant Staphylococcus aureus; 2 hours for Enterococcus faecalis and Gentamicin, Streptmycin, Vancomycin Enterococcus faecalis). MTT is a yellow tetrazolium salt that is reduced by mitochondrial enzymes in viable cells to an insoluble blue formazan product. MIC values are evaluated by observing the lowest drug concentration to inhibit bacteria growth.

[2] = tested on: Enterococcus faecalis (ATCC 29212); test: as above; settings: for MIC EF: Enterococcus faecalis ATCC29212; for MIC: Enterococcus faecalis, ATCC29212, read-out: MIC EF
Method: as §1, §2, §3

[3] = tested on: Methicillin resistant Staphylococcus aureus (ATCC 33591); test: as above; settings: for MIC MRSA: Staphylococcus aureus ATCC3359, Methicillin resistance; for MIC: Staphylococcus aureus, ATCC 3359 / ATCC 33591 / MRSA, read-out: MIC MRSA
Method: as §1, §2, §3

[4] = tested on: Staphylococcus aureus (ATCC 29213); test: as above; settings: for MIC SA: Staphylococcus aureus ATCC29213; for MIC: Staphylococcus aureus, ATCC29213, read-out: MIC SA
Method: as §1, §2, §3

[5] = tested on: gentamicin, streptmycin, vancomycin resistant Enterococcus faecalis (ATCC 51299); test: microbe, parasite or virus in culture; settings: for MIC VREF: Enterococcus faecalis ATCC51299, vancomycin resistance; for MIC: Enterococcus faecalis, ATCC51299, read-out: MIC VREF
Method: as §1, §2, §3

[6] = tested on: Enterococcus faecium CL5137, VanA; test: MIC susceptibility test; settings: for MIC CL5137: Enterococcus faecium CL5137, VanA; for MIC: Enterococcus faecium, read-out: MIC CL5137
[7] = tested on: Enterococcus faecalis CL5244, VanB; test: MIC susceptibility test; settings: for MIC CL5244: Enterococcus faecalis CL5244, VanB; for MIC: Enterococcus faecalis, read-out: MIC CL5244
Method: as §1, §3

Structure (SMILES)	MIC BC [1]	MIC EF [2]	MIC MRSA [3]	MIC SA [4]	MIC VREF [5]	MIC CL5137 [6]	MIC CL5244 [7]	MIC [1]	MIC [2]	MIC [3]	MIC [4]	MIC [5]	MIC [6]	MIC [7]
CNC(CC(C)C)C(=O)NC1C(=O)NC(CC(N)=O)C(=O)NC2C(=O)NC3C(=O)NC(C(=O)NC(C(=O)O)c4cc(O)cc(O)c4-c4cc3ccc4O)C(O)c3ccc(c(Cl)c3)Oc3cc2cc(c3OC2OC(CN=P(c3ccccc3)(c3ccccc3)c3ccccc3)C(O)C(O)C2OC2CC(C)(NCc3ccc(-c4ccc(Cl)cc4)cc3)C(O)C(C)O2)Oc2ccc(cc2Cl)C1O.O=C(O)C(F)(F)F (stereo not shown) [CXXXVI, N-4-(4-Chlorophenyl)benzyl Vancosamine-glucose-C6-iminotriphenylphosphorane Vancomycin]	1.3 µg/mL	0.32 µg/mL	0.32 µg/mL	1.3 µg/mL	0.16 µg/mL	5.0 µg/mL	0.32 µg/mL							
CN[C@H](CC(C)C)C(=O)N[C@H]1C(=O)N[C@@H](CC(N)=O)C(=O)N[C@H]2C(=O)N[C@H]3C(=O)N[C@H](C(=O)N[C@H](C(=O)O)c4cc(O)cc(O)c4-c4cc3ccc4O)[C@H](O)c3ccc(c(Cl)c3)Oc3cc2cc(c3OC2OC(CO)C(O)C(O)C2OC2CC(C)(N)C(O)C(C)O2)Oc2ccc(cc2Cl)[C@H]1O (stereo partly shown) [I, vancomycin, reference compound]								1 µg/mL (≈ 0.69 µM)	1.3 µg/mL (≈ 0.897 µM)	1.3 µg/mL (≈ 0.897 µM)	1 µg/mL (≈ 0.69 µM)	> 5 µg/mL	1600 µg/mL (≈ 1100 µM)	25 µg/mL (≈ 17.3 µM)
CNC(CC(C)C)C(=O)NC1C(=O)NC(CC(N)=O)C(=O)NC2C(=O)NC3C(=O)NC(C(=O)NC(C(=O)O)c4cc(O)cc(O)c4-c4cc3ccc4O)C(O)c3ccc(c(Cl)c3)Oc3cc2cc(c3OC2OC(CNCc3ccc(-c4ccc(Cl)cc4)o3)C(O)C(O)C2OC2CC(C)(NCc3ccc(-c4ccc(Cl)cc4)cc3)C(O)C(C)O2)Oc2ccc(cc2Cl)C1O (stereo not shown) [L, Glucose-C6-N-5-(4-chlorophenyl)furan-1-methylene-vancosamine-N-4-(4-chlorophenyl)benzyl Vancomycin]	3.8 µg/mL (≈ 2.07 µM)	1.3 µg/mL (≈ 0.707 µM)	2.5 µg/mL (≈ 1.36 µM)	5.0 µg/mL (≈ 2.72 µM)	1.0 µg/mL (≈ 0.544 µM)	6.3 µg/mL (≈ 3.42 µM)	0.8 µg/mL (≈ 0.435 µM)							
CCCCCCCCCCNC1(C)CC(OC2C(Oc3c4cc5cc3Oc3ccc(cc3Cl)C(O)C3NC(=O)C(NC(=O)C5NC(=O)C(CC(N)=O)NC(=O)C(NC(=O)C(CC(C)C)NC)C(O)c5ccc(c(Cl)c5)O4)c4ccc(O)c(c4)-c4c(O)cc(O)cc4C(C(=O)O)NC3=O)OC(CNC(=O)c3cnc4ccccc4n3)C(O)C2O)OC(C)C1O (stereo not shown) [LI, Glucose-C6-N-2-quinoxaloyl-vancosamine-N-decyl Vancomycin]	2.5 µg/mL (≈ 1.43 µM)	0.63 µg/mL (≈ 0.361 µM)	5.0< μg/mL	5.0< μg/mL	1.3 µg/mL (≈ 0.745 µM)	6.3 µg/mL (≈ 3.61 µM)	0.2 µg/mL (≈ 0.115 µM)							
CN[C@H](CC(C)C)C(=O)N[C@H]1C(=O)N[C@@H](CC(N)=O)C(=O)N[C@H]2C(=O)N[C@H]3C(=O)N[C@H](C(=O)N[C@H](C(=O)O)c4cc(O)cc(O)c4-c4cc3ccc4O)[C@H](O)c3ccc(c(Cl)c3)Oc3cc2cc(c3OC2OC(CNC(=O)c3cnc4ccccc4n3)C(O)C(O)C2OC2CC(C)(NCc3ccc(-c4ccc(Cl)cc4)cc3)C(O)C(C)O2)Oc2ccc(cc2Cl)[C@H]1O (stereo partly shown) [LII, Glucose-C6-N-2-quinoxaloyl-vancosamine-N-4-(4-chlorophenyl)benzyl Vancomycin]								1.9 µg/mL (≈ 1.05 µM)	0.08 µg/mL (≈ 0.0443 µM)	5 µg/mL (≈ 2.77 µM)	5 µg/mL (≈ 2.77 µM)	0.16 µg/mL (≈ 0.0886 µM)	3.2 µg/mL (≈ 1.77 µM)	0.2 µg/mL (≈ 0.111 µM)
CNC(CC(C)C)C(=O)NC1C(=O)NC(CC(N)=O)C(=O)NC2C(=O)NC3C(=O)NC(C(=O)NC(C(=O)O)c4cc(O)cc(O)c4-c4cc3ccc4O)C(O)c3ccc(c(Cl)c3)Oc3cc2cc(c3OC2OC(CSC(C)C)C(O)C(O)C2OC2CC(C)(N)C(O)C(C)O2)Oc2ccc(cc2Cl)C1O (stereo not shown) [LIII, Glucose-C6-thiopropianato Vancomycin]	1.3 µg/mL (≈ 0.862 µM)	2.5 µg/mL (≈ 1.66 µM)	2.5 µg/mL (≈ 1.66 µM)	2.5 µg/mL (≈ 1.66 µM)	5.0< μg/mL									
